Experimental data: ChEMBL document CHEMBL1909046, “DrugMatrix in vitro pharmacology data”

What was measured:
Glycine receptor = Glycine receptor (Rattus norvegicus, UniProt P22771+P24524+P07727+P20781); format: cell membranes, Wistar, Spinal cord, Membrane; note: in other assays of this panel Not Active means under 50% inhibition at 10 µM
[1] = molecular target: Platelet-activating factor receptor (Homo sapiens, UniProt P25105); assay: biochemical; format: tissue-based; conditions: platelet; note: in other assays of this panel Not Active means under 50% inhibition at 10 µM
[2] = molecular target: T1, C-C chemokine receptor type 4 (Homo sapiens, UniProt P51679); format: cell membranes, Membrane; conditions: chem-1; note: in other assays of this panel Not Active means under 50% inhibition at 10 µM
T1 sequence (P51679 whole entry): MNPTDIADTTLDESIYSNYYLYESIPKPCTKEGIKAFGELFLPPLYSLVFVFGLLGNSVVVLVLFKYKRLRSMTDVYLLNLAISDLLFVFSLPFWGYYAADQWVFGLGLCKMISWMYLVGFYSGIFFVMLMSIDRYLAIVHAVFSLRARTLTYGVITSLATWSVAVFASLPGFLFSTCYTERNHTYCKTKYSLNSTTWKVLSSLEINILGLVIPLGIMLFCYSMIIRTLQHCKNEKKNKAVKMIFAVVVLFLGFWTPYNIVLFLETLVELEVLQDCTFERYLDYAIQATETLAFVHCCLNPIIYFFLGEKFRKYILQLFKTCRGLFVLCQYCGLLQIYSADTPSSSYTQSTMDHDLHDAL

Nitric oxide synthase 1 = Nitric oxide synthase 1 (Rattus norvegicus, UniProt P29476); format: tissue-based, Cerebellum; note: in other assays of this panel Not Active means under 50% inhibition at 10 µM
[3] = molecular target: Mitogen-activated protein kinase 1 (Homo sapiens, UniProt P28482); assay: DRUGMATRIX: Protein Serine/Threonine Kinase, ERK2 enzyme inhibition (substrate: Myelin Basic Protein); design: species or system Escherichia coli; conditions: Not Active = under 50% inhibition at 10 µM
[4] = DRUGMATRIX: Serotonin (5-Hydroxytryptamine) 5-HT3 radioligand binding (ligand: [3H] GR-65630); format: cell membranes, Membrane; conditions: hek293; Not Active = under 50% inhibition at 10 µM
[5] = molecular target: Kappa-type opioid receptor (Homo sapiens, UniProt P41145); assay: DRUGMATRIX: Opiate kappa (OP2, KOP) radioligand binding (ligand: [3H] Diprenorphine); format: cell membranes, HEK293, Membrane; conditions: hek293; Not Active = under 50% inhibition at 10 µM
Chain of Kappa-type opioid receptor (P41145 whole entry): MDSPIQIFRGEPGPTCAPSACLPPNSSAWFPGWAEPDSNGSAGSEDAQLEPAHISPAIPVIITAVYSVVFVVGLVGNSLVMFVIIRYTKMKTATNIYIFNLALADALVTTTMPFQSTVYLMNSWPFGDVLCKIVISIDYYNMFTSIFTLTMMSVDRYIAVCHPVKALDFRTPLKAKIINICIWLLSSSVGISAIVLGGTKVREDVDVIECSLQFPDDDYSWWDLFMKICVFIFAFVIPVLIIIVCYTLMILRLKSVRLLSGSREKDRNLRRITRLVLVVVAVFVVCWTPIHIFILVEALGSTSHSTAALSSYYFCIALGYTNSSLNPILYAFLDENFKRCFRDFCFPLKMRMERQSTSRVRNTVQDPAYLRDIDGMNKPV

Chain of Mitogen-activated protein kinase 1 (P28482 whole entry): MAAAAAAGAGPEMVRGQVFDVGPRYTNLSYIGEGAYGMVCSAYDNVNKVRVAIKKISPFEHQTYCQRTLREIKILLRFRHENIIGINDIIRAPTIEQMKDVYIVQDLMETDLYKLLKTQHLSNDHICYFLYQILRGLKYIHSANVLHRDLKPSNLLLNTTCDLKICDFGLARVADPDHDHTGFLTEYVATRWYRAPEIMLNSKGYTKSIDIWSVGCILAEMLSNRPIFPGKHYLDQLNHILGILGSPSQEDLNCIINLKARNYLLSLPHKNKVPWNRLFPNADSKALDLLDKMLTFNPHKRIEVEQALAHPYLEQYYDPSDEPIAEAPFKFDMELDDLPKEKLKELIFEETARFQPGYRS
Chain of Nitric oxide synthase 1 (P29476 whole entry): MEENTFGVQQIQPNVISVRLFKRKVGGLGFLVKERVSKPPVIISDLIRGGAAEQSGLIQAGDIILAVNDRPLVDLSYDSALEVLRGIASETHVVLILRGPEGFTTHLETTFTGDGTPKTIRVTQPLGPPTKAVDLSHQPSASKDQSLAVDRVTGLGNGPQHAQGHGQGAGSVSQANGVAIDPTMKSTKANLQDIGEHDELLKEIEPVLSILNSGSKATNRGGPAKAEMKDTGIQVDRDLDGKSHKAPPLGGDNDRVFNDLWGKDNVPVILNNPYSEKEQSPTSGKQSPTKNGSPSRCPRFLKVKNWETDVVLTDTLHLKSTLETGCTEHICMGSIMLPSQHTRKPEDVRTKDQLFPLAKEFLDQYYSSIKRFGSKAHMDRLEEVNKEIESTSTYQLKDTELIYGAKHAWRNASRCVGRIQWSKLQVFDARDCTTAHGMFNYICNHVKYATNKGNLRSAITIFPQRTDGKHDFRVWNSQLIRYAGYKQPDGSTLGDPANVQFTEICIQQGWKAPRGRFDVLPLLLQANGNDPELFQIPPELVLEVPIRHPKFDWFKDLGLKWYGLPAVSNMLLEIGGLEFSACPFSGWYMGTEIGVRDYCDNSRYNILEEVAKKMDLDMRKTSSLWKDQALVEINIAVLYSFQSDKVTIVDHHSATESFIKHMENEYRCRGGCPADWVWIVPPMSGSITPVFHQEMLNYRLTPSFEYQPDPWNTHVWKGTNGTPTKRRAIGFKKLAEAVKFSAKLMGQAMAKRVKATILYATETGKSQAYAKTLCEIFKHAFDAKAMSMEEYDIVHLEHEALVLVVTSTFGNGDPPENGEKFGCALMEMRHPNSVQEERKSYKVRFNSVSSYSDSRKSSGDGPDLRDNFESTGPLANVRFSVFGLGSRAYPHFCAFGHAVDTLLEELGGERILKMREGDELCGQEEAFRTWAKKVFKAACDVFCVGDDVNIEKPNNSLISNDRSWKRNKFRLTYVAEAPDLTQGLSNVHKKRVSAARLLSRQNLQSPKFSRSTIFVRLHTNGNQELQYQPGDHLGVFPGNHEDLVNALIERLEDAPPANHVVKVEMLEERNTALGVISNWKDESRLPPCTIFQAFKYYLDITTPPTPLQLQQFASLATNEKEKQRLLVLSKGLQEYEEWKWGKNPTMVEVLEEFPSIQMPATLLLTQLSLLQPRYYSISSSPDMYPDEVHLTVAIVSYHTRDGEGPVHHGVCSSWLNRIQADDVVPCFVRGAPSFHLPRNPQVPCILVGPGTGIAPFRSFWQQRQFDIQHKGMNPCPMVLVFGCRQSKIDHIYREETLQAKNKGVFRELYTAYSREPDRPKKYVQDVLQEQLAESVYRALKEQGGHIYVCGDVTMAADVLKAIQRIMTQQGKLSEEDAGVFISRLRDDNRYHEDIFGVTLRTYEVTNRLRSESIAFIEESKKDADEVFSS
Chain of Platelet-activating factor receptor (P25105 whole entry): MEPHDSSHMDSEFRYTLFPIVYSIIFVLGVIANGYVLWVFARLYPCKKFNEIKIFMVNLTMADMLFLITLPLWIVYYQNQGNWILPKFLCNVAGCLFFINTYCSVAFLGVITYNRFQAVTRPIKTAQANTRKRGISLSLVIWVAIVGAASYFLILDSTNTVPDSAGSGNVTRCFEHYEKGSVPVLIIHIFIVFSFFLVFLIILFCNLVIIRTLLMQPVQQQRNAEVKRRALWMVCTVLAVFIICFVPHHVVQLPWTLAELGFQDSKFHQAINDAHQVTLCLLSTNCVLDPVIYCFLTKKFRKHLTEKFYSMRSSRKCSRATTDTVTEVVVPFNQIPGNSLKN

COc1ccc2cc(CCC(C)=O)ccc2c1 [NABUMETONE]
Not Active: IC50 (Glycine receptor) | IC50 [1] | IC50 [2] | IC50 (Nitric oxide synthase 1) | IC50 [3] | IC50 [4] | Ki [4] | IC50 [5]

O=C(O)c1cccnc1 [NIACIN]
Not Active: IC50 (Glycine receptor) | IC50 [1] | IC50 [2] | IC50 (Nitric oxide synthase 1) | IC50 [3] | IC50 [4] | Ki [4] | IC50 [5]

CNC(=C[N+](=O)[O-])NCCSCc1csc(CN(C)C)n1 [NIZATIDINE]
Not Active: IC50 (Glycine receptor) | IC50 [1] | IC50 [2] | IC50 (Nitric oxide synthase 1) | IC50 [3] | IC50 [4] | Ki [4] | IC50 [5]

C[C@]12C/C(=C/O)C(=O)C[C@@H]1CC[C@@H]1[C@@H]2CC[C@@]2(C)[C@H]1CC[C@]2(C)O [OXYMETHOLONE]
Not Active: IC50 (Glycine receptor) | IC50 [1] | IC50 [2] | IC50 (Nitric oxide synthase 1) | IC50 [3] | IC50 [4] | Ki [4] | IC50 [5]

CC(C)(CO)C(O)C(=O)NCCCO (stereo not given) [PANTHENOL]
Not Active: IC50 (Glycine receptor) | IC50 [1] | IC50 [2] | IC50 (Nitric oxide synthase 1) | IC50 [3] | IC50 [4] | Ki [4] | IC50 [5]

OCCN1CCN(CCCN2c3ccccc3Sc3ccc(Cl)cc32)CC1 [PERPHENAZINE]
Not Active: IC50 (Glycine receptor) | IC50 [1] | IC50 [2] | IC50 (Nitric oxide synthase 1) | IC50 [3] | IC50 [4] | Ki [4] | IC50 [5]

CCCCC1C(=O)N(c2ccccc2)N(c2ccccc2)C1=O [PHENYLBUTAZONE]
Not Active: IC50 (Glycine receptor) | IC50 [1] | IC50 [2] | IC50 (Nitric oxide synthase 1) | IC50 [3] | IC50 [4] | Ki [4] | IC50 [5]

Cc1cccc(Nc2cc(Cl)nc(SCC(=O)O)n2)c1C [PIRINIXIC ACID]
Not Active: IC50 (Glycine receptor) | IC50 [1] | IC50 [2] | IC50 (Nitric oxide synthase 1) | IC50 [3] | IC50 [4] | Ki [4] | IC50 [5]

CC[C@H](C)C(=O)O[C@H]1C[C@H](O)C=C2C=C[C@H](C)[C@H](CC[C@@H](O)C[C@@H](O)CC(=O)O)[C@H]21 [PRAVASTATIN]
Not Active: IC50 (Glycine receptor) | IC50 [1] | IC50 [2] | IC50 (Nitric oxide synthase 1) | IC50 [3] | IC50 [4] | Ki [4] | IC50 [5]

CC(C)(Sc1cc(C(C)(C)C)c(O)c(C(C)(C)C)c1)Sc1cc(C(C)(C)C)c(O)c(C(C)(C)C)c1 [PROBUCOL]
Not Active: IC50 (Glycine receptor) | IC50 [1] | IC50 [2] | IC50 (Nitric oxide synthase 1) | IC50 [3] | IC50 [4] | Ki [4] | IC50 [5]
